Data from publication PMC8746970, “Determination of the Peptide AWRK6 in Rat Plasma by Liquid Chromatography-Tandem Mass Spectrometry (LC-MS/MS) and Its Application to Pharmacokinetics” (Molecules, 2021).
Where two headings read alike, the source gives them in different places. No end group written: not given here.

Assay: Pharmacokinetic study of AWRK6 in rats after intraperitoneal or intravenous injection, plasma LC-MS/MS
Assay type: in vivo, rat
Details: for AUC(0-inf) / Cmax / Tmax / CL/F / MRT / Vd/F / half-life / AUC(0-t) / bioavailability: rat; for CL/F: read-out: CLz/F (converted); for MRT: read-out: MRT(0–t); for Vd/F: read-out: Vz/F; for half-life: read-out: t1/2z (converted); for bioavailability: from AUC, read-out: F (absolute bioavailability)
Protocol: The samples were analyzed on a LC-MS/MS system consisting of an Agilent 1290 Infinity II UHPLC System coupled with an Agilent 6460 Triple Quadrupole Mass Spectrometer with an electrospray ionisation source (ESI). The Agilent MassHunter Workstation Qualitative Analysis B.06.00 (Agilent Technologies, Santa Clara, CA, USA) software was used. Chromatographic separation was performed on a Supersil ODS2 column (4.6 mm × 250 mm, 5 μm, Dalian Elite Analytical Instruments, Dalian, China). The separation conditions were 30 °C by using a FA-ACN (0.1:99.9, v/v, A) and FA-water (0.1:99.9, v/v, B) solutions at a flow rate of 0.5 mL/min. The sample injection volume was 20 μL and the autosampler was kept at 4 °C. The initial eluent A-B (20:80, v/v) was changed to A-B (30:70, v/v) in 4 min and subsequently changed to A-B (90:10, v/v) in the next 3 min in a linear gradient form and maintained at this ratio for another 1 min. PMB was used as the IS. MS analysis was carried out in the multiple reaction monitoring (MRM) mode with following operation parameters: capillary voltage, 3.5 kV; gas temperature, 325 °C; nebulizer gas pressure, 35 psi; sheath gas, 11 L/min, 350 °C; fragmentor voltages, 155 V for AWRK6 and 75 V for IS; collision energy (CE), 80 eV for AWRK6 and 40 eV for IS; precursor-to-product ion transition, m/z: 533.3→84.1 for AWRK6 and m/z: 402.1→101.1 for IS.
The AWRK6 and IS were dissolved in water at 1.0 mg/mL for stock solution. The AWRK6 calibration standards at 0.05, 0.1, 0.5, 1, 2, 5, and 10 μg/mL were prepared by mixing 50 μL of working solution and 100 μL of blank plasma individually. QC samples of AWRK6 at 0.1, 0.5, and 5 μg/mL were prepared by the same method. The thawed plasma samples (100 μL) were mixed with 50 μL water (or QC), 50 μL IS (1 μg/mL), and 20 μL FA-water (25:75, v/v). A combination of plasma precipitation and liquid–liquid extraction was applied for the extraction of AWRK6 in samples. After adding 200 μL methanol and 100 μL dichloromethane, the mixtures were vortexed for 30 s and centrifuged at 14,000 g for 10 min. The supernatant was filtered by 0.22 μm membrane for LC-MS/MS analysis.
SPF-grade male Sprague Dawley rats (280–320 g, 8 weeks old) were purchased from Liaoning Changsheng Biotechology (Liaoning, China). The rats were housed under a controlled environment (temperature: 25 ± 2 °C; relative humidity: 55 ± 10%; alternating natural light/dark cycles) with free access to food and water unless otherwise noted. The study was approved by the Laboratory Animal Welfare and Ethical Review Board of China Medical University (CMU2019089, 8 March 2019). According to the previous study, the rats was administrated with AWRK6 dissolved in saline intraperitoneally at 2.35, 4.7, and 9.4 mg/kg bodyweight and intravenously at 4.7 mg/kg after being fasted for 12 h. The intravenous doing was administered via the tail vein of the rats. Blood samples were collected from orbital venous plexus at 0.083, 0.167, 0.25, 0.5, 1, 1.5, 2, 3, 4, 6, 8, and 10 h using heparin tubes after administration, followed by centrifugation at 4000 g for 10 min at 4 °C and storage at −80 °C. The obtained data were analyzed using DAS 2.0 software (Anhui Provincial Center for Drug Clinical Evaluation). The absolute bioavailability of AWRK6 for intraperitoneal administration was calculated by the following formula:(1) F=AUCi.p.×Di.v./Di.p.×AUCi.v.×100%

[1] = male Sprague Dawley rats, single i.v. 4.700 mg/kg (tail vein), plasma, LC-MS/MS, mean ± SD, n = 6
[2] = ip, 2.35 mg/kg, male Sprague Dawley rats, single i.p. 2.350 mg/kg, plasma, LC-MS/MS, mean ± SD, n = 6
[3] = ip, 4.7 mg/kg, male Sprague Dawley rats, single i.p. 4.700 mg/kg, plasma, LC-MS/MS, mean ± SD, n = 6
[4] = ip, 9.4 mg/kg, male Sprague Dawley rats, single i.p. 9.400 mg/kg, plasma, LC-MS/MS, mean ± SD, n = 6
[5] = iv, 4.7 mg/kg, male Sprague Dawley rats, single i.v. 4.700 mg/kg (tail vein), plasma, LC-MS/MS, mean ± SD, n = 6
[6] = rats, two-compartment model, weight coefficient of 1, DAS 2.0

In the case of “SWVGKHGKKFGLKKHKKH-NH2 (C-terminus assumed) [AWRK6]”, the “VRT(0–t)” value (male Sprague Dawley rats, single i.p. 2.350 mg/kg, plasma, LC-MS/MS, mean ± SD, n = 6) is reported as 2.549 ± 1.480 h^2, the “VRT(0–t)” value (male Sprague Dawley rats, single i.p. 4.700 mg/kg, plasma, LC-MS/MS, mean ± SD, n = 6) is reported as 3.859 ± 0.904 h^2 and the “VRT(0–t)” value (male Sprague Dawley rats, single i.p. 9.400 mg/kg, plasma, LC-MS/MS, mean ± SD, n = 6) is reported as 4.366 ± 1.439 h^2. The CLz/F [1] was 28.32 ± 3.65 mL/min/kg, the Vz/F [1] was 4.884 ± 1.736 L/kg and the AUC(0-inf) [2] was 851 ± 221 ng·h/mL. The Cmax [2] was 217 ± 10 ng/mL, the Tmax [2] was 1.17 ± 0.258 h and the CL/F [2] was 48 mL/min/kg. It also gave an MRT [2] of 2.26 ± 0.488 h, a Vd/F [2] of 10.9 ± 3.96 L/kg and a half-life [2] of 2.95 ± 2.05 h. It also gave an AUC(0-inf) [3] of 1590 ± 275 ng·h/mL, an AUC(0-t) [3] of 1360 ± 176 ng·h/mL and a Cmax [3] of 454 ± 48 ng/mL. The Tmax [3] was 1.25 ± 0.274 h, the CL/F [3] was 50.6 mL/min/kg and the MRT [3] was 2.49 ± 0.227 h. The Vd/F [3] was 12.3 ± 4.85 L/kg, the half-life [3] was 2.94 ± 1.4 h and the AUC(0-inf) [4] was 2910 ± 356 ng·h/mL. The AUC(0-t) [4] was 2630 ± 236 ng·h/mL, the Cmax [4] was 888 ± 46 ng/mL and the Tmax [4] was 1.21 ± 0.217 h. For the same substance, the CL/F [4] was 54.4 mL/min/kg, the MRT [4] was 2.52 ± 0.292 h and the Vd/F [4] was 12.7 ± 3.37 L/kg. For the same substance, the half-life [4] was 2.78 ± 1.02 h, the AUC(0-inf) [5] was 2800 ± 333 ng·h/mL and the AUC(0-t) [5] was 2600 ± 277 ng·h/mL. The Cmax [5] was 2130 ± 174 ng/mL, the MRT [5] was 1.73 ± 0.261 h and the half-life [5] was 1.98 ± 0.583 h. It also gave a bioavailability (plasma, ip, 2.35 mg/kg, male Sprague Dawley rats, i.p. 2.350 mg/kg versus i.v. 4.700 mg/kg) of 48.8%, a bioavailability (plasma, ip, 4.7 mg/kg, male Sprague Dawley rats, i.p. 4.700 mg/kg versus i.v. 4.700 mg/kg) of 52.5% and a bioavailability (plasma, ip, 9.4 mg/kg, male Sprague Dawley rats, i.p. 9.400 mg/kg versus i.v. 4.700 mg/kg) of 50.6%. For the same substance, the “time after which plasma concentration was below the LLOQ” value (rats, after intraperitoneal injection, LLOQ 0.050 μg/mL) was ~10 h, the “time at which AWRK6 in plasma was cleared” value (rats, after intravenous injection 4.7 mg/kg) was “about 10 h” and the “time at which AWRK6 concentrations in rat plasma peaked” value (rats, intraperitoneal injections at 2.35, 4.7 and 9.4 mg/kg bodyweight) was “about 1.2 h”. The transport rate constant K12 [6] was 2.55 h⁻¹ and the transport rate constant K21 [6] was 1.67 h⁻¹.
